Data on 19 compounds can be found in US20260250251A1, “HETEROCYCLIC COMPOUNDS AS PI3Ka INHIBITORS” (Pikavation Therapeutics, Inc., priority 2022, published 2026).

pIC50: −log10 of the molar value.

Experiment [1] has as its system T47D (PIK3CA H1047R) cells, pSer473 AKT. The experiment can be described thus: pS473 AKT assay in T47D cells. The experiment is classed as cell-based. As to conditions: Homo sapiens, treated 2 h, read-out: T47D_IC50. The procedure:
(§1) SKBR3 (PIK3CA WT), MCF7 (PIK3CA E545K), and T47D (PIK3CA H1047R) cells were cultured using 10-cm petri dishes with recommended medium. One day before the assay, cells were seeded in 96-well plates. After overnight incubation, cells were treated with different concentrations of PI3Kα inhibitors for 2 h. Cells were then fixed using 4% paraformaldehyde at room temperature for 20 min. Cells were aspirated with 4% paraformaldehyde, and washed using 1× regular phosphate buffered saline 3 times, 5 min each. Any residual phosphate buffered saline was aspirated and cells were blocked using 10% goat serum containing 1% bovine serum albumin and 0.3% Triton X-100 at room temperature for 1 h. Without any additional washing, primary antibodies (rabbit anti-pSer473 AKT) were diluted using blocking buffer and added at a final volume of 50 microliter per well. Assay plates with primary antibodies were maintained overnight at 4° C. Cells were washed using 1× regular phosphate buffered saline 3 times, 5 min each. After the final wash, cells were incubated with horseradish peroxidase-conjugated secondary antibodies (goat Anti-rabbit IgG) and diluted using the same blocking buffer at room temperature for 1 h. Cells were then washed thoroughly using 1× regular phosphate buffered saline 3 times, 5 min each, and any residual phosphate buffered saline was aspirated. Super-Signal ELISA Pico Chemiluminescent Substrate was then added at a final volume of 100 microliter per well. Plates were read on a i3x Multi-Mode Microplate Reader and IC50 values calculated using GraphPad Prism software.
(§2) Results of the assay described above are presented in Table A. “++++” indicates an IC50 less than 1000 nM; “+++” indicates an IC50 greater than or equal to 1000 nM but less than 5000 nM; “++” indicates an IC50 greater than or equal to 5000 nM but less than 10000 nM; and “+” indicates an IC50 greater than or equal to 10000 nM.

Experiment [2] deals with SKBR3 (PIK3CA WT) cells, pSer473 AKT. Nature of the experiment: pS473 AKT assay in SKBR3 cells. The experiment is classed as cell-based. The settings on record: Homo sapiens, SK-BR-3, treated 2 h, read-out: SKBR3_IC50. As to the method: as §1, §2

As for `Nc1n[nH]c2c(CN3CCOCC3)cc(NC(=O)c3cc(F)cc(C(F)(F)F)c3)c(Oc3cc(F)ccc3Cl)c12` [Example 21, N-(3-Amino-4-(2-chloro-5-fluorophenoxy)-7-(morpholinomethyl)-1H-indazol-5-yl)-3-fluoro-5-(trifluoromethyl)benzamide], the pIC50 in experiment [1] and in experiment [2] was over 6.00 throughout.
On to `CC(=O)n1nc(N)c2c(Oc3cc(F)ccc3Cl)c(NC(=O)c3cc(F)cc(C(F)(F)F)c3)cc(Br)c21` [Example 82, N-(1-Acetyl-3-amino-7-bromo-4-(2-chloro-5-fluorophenoxy)-1H-indazol-5-yl)-3-fluoro-5-(trifluoromethyl)benzamide], for which the pIC50 in experiment [1] was over 6.00; in experiment [2], 5.30 to 6.00.
For the compound `CNc1n[nH]c2ccc(NC(=O)c3cc(F)cc(C(F)(F)F)c3)c(Oc3cc(F)ccc3Cl)c12` [Example 2, N-(4-(2-Chloro-5-fluorophenoxy)-3-(methylamino)-1H-indazol-5-yl)-3-fluoro-5-(trifluoromethyl)benzamide], the pIC50 in experiment [1] was over 6.00; in experiment [2], 5.30 to 6.00.
Turning to `Cn1nncc1-c1cc(NC(=O)c2cc(F)cc(C(F)(F)F)c2)c(Oc2cc(F)ccc2Cl)c2c(N)nn(C)c12` [Example 30, N-(3-Amino-4-(2-chloro-5-fluorophenoxy)-1-methyl-7-(1-methyl-1H-1,2,3-triazol-5-yl)-1H-indazol-5-yl)-3-fluoro-5-(trifluoromethyl)benzamide], the pIC50 in experiment [1] and in experiment [2] was over 6.00 in each case.
As for `Cn1nc(N)c2c(Oc3cc(F)ccc3Cl)c(NC(=O)c3cc(F)cc(C(F)(F)F)c3)cc(CCO)c21` [Example 66, N-(3-Amino-4-(2-chloro-5-fluorophenoxy)-7-(2-hydroxyethyl)-1-methyl-1H-indazol-5-yl)-3-fluoro-5-(trifluoromethyl)benzamide], the pIC50 in experiment [1] and in experiment [2] was over 6.00 throughout.
As to `Nc1nn2c3c(cc(NC(=O)c4cc(F)cc(C(F)(F)F)c4)c(Oc4cc(F)ccc4Cl)c13)NC(=O)C2` [Example 32, N-(6-Amino-7-(2-chloro-5-fluorophenoxy)-2-oxo-2,3-dihydro-1H-pyrazolo[1,5,4-de]quinoxalin-8-yl)-3-fluoro-5-(trifluoromethyl)benzamide], the pIC50 in experiment [1] and in experiment [2] was over 6.00 in each case.
As to `CC(=O)N1CCCCC1C#Cc1cc(NC(=O)c2cc(F)cc(C(F)(F)F)c2)c(Oc2cc(F)ccc2Cl)c2c(N)nn(C)c12` (centres unmarked) [Example 79, N-(7-((1-Acetylpiperidin-2-yl)ethynyl)-3-amino-4-(2-chloro-5-fluorophenoxy)-1-methyl-1H-indazol-5-yl)-3-fluoro-5-(trifluoromethyl)benzamide], the pIC50 in experiment [1] is over 6.00; in experiment [2], 5.30 to 6.00.
Consider `Cn1nc(N)c2c(Oc3cc(F)ccc3Cl)c(NC(=O)N3CCc4ccccc43)cc(Cl)c21` [Example 64, N-(3-Amino-7-chloro-4-(2-chloro-5-fluorophenoxy)-1-methyl-1H-indazol-5-yl)indoline-1-carboxamide], for which the pIC50 in experiment [1] was over 6.00; in experiment [2], 5.30 to 6.00.
On to `Cn1nc(N)c2c(Oc3cc(F)ccc3Cl)c(NC(=O)c3cc(F)cc(C(F)(F)F)c3)cc(CCc3ccccn3)c21` [Example 77, N-(3-Amino-4-(2-chloro-5-fluorophenoxy)-1-methyl-7-(2-(pyridin-2-yl)ethyl)-1H-indazol-5-yl)-3-fluoro-5-(trifluoromethyl)benzamide], for which the figures for the pIC50 in experiment [1] and in experiment [2] were over 6.00 and 5.30 to 6.00, respectively.
On to `Cn1nc(N)c2c(Oc3cc(F)ccc3Cl)c(NC(=O)c3cc(F)cc(C(F)(F)F)c3)cc(C#CC3CC3)c21` [Example 42, N-(3-Amino-4-(2-chloro-5-fluorophenoxy)-7-(cyclopropylethynyl)-1-methyl-1H-indazol-5-yl)-3-fluoro-5-(trifluoromethyl)benzamide], for which the pIC50 in experiment [1] is over 6.00; in experiment [2], 5.30 to 6.00.
The matching figures for `Cn1nc(N)c2c(Oc3cc(F)ccc3Cl)c(NC(=O)c3cc(F)cc(C(F)(F)F)c3)cc(C#CC3(N)CC3)c21` [Example 45, N-(3-Amino-7-((1-aminocyclopropyl)ethynyl)-4-(2-chloro-5-fluorophenoxy)-1-methyl-1H-indazol-5-yl)-3-fluoro-5-(trifluoromethyl)benzamide]: over 6.00 and over 6.00.
In the same order, the values of `Cn1nc(N)c2c(Oc3cc(F)ccc3Cl)c(NC(=O)c3csc4ccccc34)cc(Cl)c21` [Example 63, N-(3-Amino-7-chloro-4-(2-chloro-5-fluorophenoxy)-1-methyl-1H-indazol-5-yl)benzo[b]thiophene-3-carboxamide] are over 6.00 and 5.30 to 6.00.
`Nc1n[nH]c2ccc(NC(=O)c3cc(F)cc(C(F)(F)F)c3)c(Cc3cc(F)ccc3Cl)c12` [Example 5, N-(3-Amino-4-(2-chloro-5-fluorobenzyl)-1H-indazol-5-yl)-3-fluoro-5-(trifluoromethyl)benzamide]: the figures for the pIC50 in experiment [1] and in experiment [2] were 5.30 to 6.00 and 5.00 to 5.30, respectively.
In the same order, the values of `Cn1ccc(C#Cc2cc(NC(=O)c3cc(F)cc(C(F)(F)F)c3)c(Oc3cc(F)ccc3Cl)c3c(N)nn(C)c23)n1` [Example 48, N-(3-Amino-4-(2-chloro-5-fluorophenoxy)-1-methyl-7-((1-methyl-1H-pyrazol-3-yl)ethynyl)-1H-indazol-5-yl)-3-fluoro-5-(trifluoromethyl)benzamide] are over 6.00 and 5.30 to 6.00.
With `Cn1nc(NC(=O)CN)c2c(Oc3cc(F)ccc3Cl)c(NC(=O)c3cc(F)cc(C(F)(F)F)c3)cc(Cl)c21` [Example 35, N-(3-(2-Aminoacetamido)-7-chloro-4-(2-chloro-5-fluorophenoxy)-1-methyl-1H-indazol-5-yl)-3-fluoro-5-(trifluoromethyl)benzamide], the results for the pIC50 in experiment [1] and in experiment [2] were over 6.00 and 5.30 to 6.00, respectively.
On to `Cn1nc(N)c2c(Oc3cc(F)ccc3Cl)c(NC(=O)c3cc(F)cc(C(F)(F)F)c3)cc(N3CCn4ncnc4C3)c21` [Example 55, N-(3-Amino-4-(2-chloro-5-fluorophenoxy)-7-(5,6-dihydro-[1,2,4]triazolo[1,5-a]pyrazin-7(8H)-yl)-1-methyl-1H-indazol-5-yl)-3-fluoro-5-(trifluoromethyl)benzamide], for which the values for the pIC50 in experiment [1] and in experiment [2] were over 6.00 and 5.30 to 6.00, respectively.
The matching figures for `Cn1nc(N)c2c(Oc3cc(F)ccc3Cl)c(NC(=O)c3cc(F)cc(C(F)(F)F)c3)ccc21` [Example 7, N-(3-amino-4-(2-chloro-5-fluorophenoxy)-1-methyl-1H-indazol-5-yl)-3-fluoro-5-(trifluoromethyl)benzamide]: over 6.00 and over 6.00.
`Cn1nc(N)c2c(Oc3cc(F)ccc3Cl)c(NC(=O)c3cc(F)cc(C(F)(F)F)c3)cc(CCC#N)c21` [Example 59, N-(3-Amino-4-(2-chloro-5-fluorophenoxy)-7-(2-cyanoethyl)-1-methyl-1H-indazol-5-yl)-3-fluoro-5-(trifluoromethyl)benzamide]: the pIC50 in experiment [1] and in experiment [2] was over 6.00 in each case.
As for `C#Cc1cc(NC(=O)c2cc(F)cc(C(F)(F)F)c2)c(Oc2cc(F)ccc2Cl)c2c(N)nn(C)c12` [Example 47, N-(3-Amino-4-(2-chloro-5-fluorophenoxy)-7-ethynyl-1-methyl-1H-indazol-5-yl)-3-fluoro-5-(trifluoromethyl)benzamide], the pIC50 in experiment [1] is over 6.00; in experiment [2], 5.30 to 6.00.
